Counter-ions that a name gives are not always drawn. Like-named read-outs stand apart in the source and are kept apart here.

The values that follow come from US8003634B2, “Analogs of benzoquinone-containing ansamycins and methods of use thereof” (Infinity Pharmaceuticals, Inc., priority 2003, dated 2011).

The nature of one series: physchem. The note with it: water / aqueous solutions.
The next series concerns MDA-MB-468 cells. Put plainly: MDA-MB-468 cell cytotoxicity, Alamar blue. It is filed as cell-based. The note with it: Homo sapiens, 72 h. The method, then: (§1) The human cancer cell lines SKBr3, MV4-11, K562, SK-MEL-28, LnCAP, and MDA-MB-468 were obtained from the American Type Culture Collection (Manassas, Va.). The multiple myeloma RPMI-8226 and MM1.s cells were from Dr. Teru Hideshima (Jerome Lipper Multiple Myeloma Center, Dana Farber Cancer Institute, Boston, Mass., USA.). All the cell lines were determined to be mycoplasma-free. The cells were maintained in RPMI-1640 medium supplemented with 10% heat-inactivated FBS, 50 units/mL streptomycin and 50 units/mL penicillin, and incubated at 37° C. in 5% CO2. Adherent cells were dissociated with 0.05% trypsin and 0.02% EDTA in phosphate buffer saline (PBS) without calcium and magnesium prior to plating for experimentation.
MDA-MB-468 Cells were incubated for 72 h with increasing concentrations of the test compound. For the viability studies Alamar blue was added and wells read after 6 h of incubation.

Series [1] relates to MDA-MB-468 breast carcinoma. Put plainly: Breast carcinoma model, subcutaneous MDA-MB-468 tumors. It is filed as in vivo. The note with it: MDA-MB-468 s.c. in female nu/nu athymic mice; 100 mg/kg IV twice weekly; after 120 days. The method, then:
A study was performed in the MDA-MB-468 breast carcinoma model to assess the ability of the test compound to reduce subcutaneous tumor burden. In this study, female nu/nu athymic mice were implanted subcutaneously with MDA-MB-468 cells (1×10^7 cells). When the average tumor size reached 100 mm^3, animals were randomly assigned (N=10-15/group) to one of the following treatment groups; vehicle or the test compound at 100 mg/kg (300 mg/m^2) twice weekly every week. The test article or vehicle was administered intravenously (IV) via the tail vein in a volume of 0.2 mL over approximately 20 seconds (sec). The animals were sacrificed after 120 days and tumor volumes compared.
(§2) The results from the biological activity analysis of the hydroquinones of the invention are presented below. All values are expressed as the mean±SEM. Data analysis consisted of a one way analysis of variance and if appropriate followed by Dunnets test to assess differences between vehicle and treatment groups. Differences are considered significant at p<0.05.

Another series has as its system MV4-11 cells. The series can be described thus: MV4-11 cell cytotoxicity, Alamar blue. Type of series: cell-based. Conditions: Homo sapiens, 72 h, 3 days. The method, then: as §1
MV4-11 cells were incubated for 3 days with increasing concentrations of the test compound. Cell viability was assessed using an Alamar blue read out.

The next series deals with LnCAP cells. The series can be described thus: LnCAP cell cytotoxicity, Alamar blue. It is filed as cell-based. The note with it: Homo sapiens, 96 h, 4 days. The method, then:
as §1
Increasing concentrations of the test compound added to LnCAP cells in culture for 4 days and the viability of the cells was measured using Alamar blue.

The test system of series [2] is human multiple myeloma cell line RPMI-8226. Put plainly: Multiple myeloma model, subcutaneous RPMI-8226 tumors. Type of series: in vivo. The note with it: RPMI-8226 s.c. in male SCID/NOD mice; 100 mg/kg IV three consecutive days per week; after 45 days. The method, then: The effects of the test compound were studied in a human multiple myeloma cell line RPMI-8226 in male SCID/NOD mice. In this study, male mice were implanted subcutaneously with RPMI-8226 cells (1×10^7 cells). When the average tumor size reached 100 mm^3, animals were randomly assigned to treatment groups (N=10-15/group) to receive either vehicle (50 mM citrate, 50 mM ascorbate, 2.4 mM EDTA adjusted to pH 3.0) or 100 mg/kg (300 mg/m^2) of the test compound three consecutive days per week. The test article or vehicle was administered intravenously (IV) via the tail vein in a volume of 0.2 mL over approximately 20 seconds (sec). The animals were sacrificed after 45 days and tumor volumes compared.
as §2

For another series, the system named is SKOV-3 cells. Put plainly: Ovarian carcinoma model, SKOV-3 xenograft. Conditions: SKOV-3 s.c. in female nu/nu athymic mice; 100 mg/kg IV twice weekly; after 88 days. It is filed as in vivo. The method, then:
A study was performed in the SKOV-3 ovarian mouse xenograft model to assess the ability of the test compound to reduce subcutaneous tumor burden. In this study, female nu/nu athymic mice were implanted subcutaneously with SKOV-3 cells (1×10^7 cells). When the average tumor size reached 100 mm^3, animals were randomly assigned to treatment groups (N=10-15/group) to receive either vehicle, the test compound at 100 mg/kg (300 mg/m^2) twice weekly. The test article or vehicle was administered intravenously (IV) via the tail vein in a volume of 0.1 mL over approximately 10 seconds (sec). The animals were sacrificed after 88 days and tumor volumes compared.
as §2

For the next series, the system named is MM1.s cells. The series can be described thus: MM1.s cell cytotoxicity, Alamar Blue assay. Type of series: cell-based. The note with it: Homo sapiens, 72 h. The method, then: as §1
Alamar Blue assay. MM1.s cells (50,000/well) were incubated for 72 h with increasing concentrations of the test compound. Alamar blue was added to the wells and fluorescence measured 4 h after incubation at 37° C.
Background: Alamar Blue is a resazurin reagent that responds to reducing activity.

The next series deals with SK-MEL-28 cells. The series can be described thus: SK-MEL-28 cell cytotoxicity, Alamar blue. Type of series: cell-based. Conditions: Homo sapiens, SK-MEL-28 cells, 2, 3 or 4 days. The method, then: as §1
Increasing concentrations of the test compound was added to SK-MEL-28 cells in culture for 2, 3 or 4 days and the viability of the cells was measured using Alamar blue.

For the next series, the system named is SKBr3 cells. The series can be described thus: SKBr3 cell cytotoxicity, Alamar blue. Type of series: cell-based. The note with it: Homo sapiens, SK-BR-3, 72 h. The method, then: as §1
SKBr3 Cells were incubated for 72 h with increasing concentrations of the test compound. For the viability studies Alamar blue was added and wells read after a 6 h incubation.

The subject of series [3] is Native human Hsp90 protein isolated from HeLa cells. Put plainly: Competitive binding to HSP90, fluorescence polarization assay with BODIPY-GDM. The note with it: competitive binding experiment. (In general: Fluorescence polarisation rises when a labelled molecule tumbles more slowly, as on binding a larger partner.)
Protocol: A 20 nM BODIPY-GDM solution was freshly prepared in FP binding assay buffer [20 mM HEPES-KOH, pH 7.3, 1.0 mM EDTA, 100 mM potassium chloride, 5.0 mM magnesium chloride, 0.01% NP-40, 0.1 mg/mL Bovine γ-globulin (BGG), 1.0 mM DTT, and Complete™ protease inhibitor] from a 20 μM stock solution in DMSO. […] After 3-h incubation at 30° C., fluorescence anisotropy was measured on an EnVision 2100 multilabel plate reader equipped with a 485 nm excitation filter and a 535 nm P/S emission filter (Perkin Elmer, Boston, Mass.).
A dilution series for each compound was freshly prepared in FP binding assay buffer from 20 μM to 0.20 nM. […] After 3-h incubation at 30° C., fluorescence anisotropy was measured on an EnVision 2100 plate reader.
Assays were performed under nitrogen atmosphere in a LabMaster glove box (M. Braun, Stratham, N H). […] After 3-h incubation at 30° C., the microplate was brought out of the glove box, and fluorescence anisotropy was immediately measured on an EnVision 2100 plate reader.
Binding of BODIPY-GDM to Hsp90 results in simultaneous increases in fluorescence anisotropy (FA) and intensity (FI). […]
[formula] with Hill coefficient forced to 1 for simplicity. From the values of FImax (bound ligand) and FImin (free ligand), a Q factor is calculated by: […]
[formula] and FA being expressed as the weighted sum of contributions from the free and bound forms of ligand: […]
For the next series, the system named is Lewis lung cells. Put plainly: Murine Lewis lung model. It is filed as in vivo. Conditions: Lewis lung cells s.c. in C57B1/6 mice; 75 mg/m^2 MWF for 3 cycles, tail vein; after 25 days. The method, then: A study was performed in the mouse Lewis lung model to assess the ability of the compounds of the present invention to reduce both subcutaneous tumor burden as well as the incidence of lung metastasis. In this study C57B1/6 mice were implanted subcutaneously with Lewis lung cells (1×10^6 cells). When the average tumor size reached 71 mm^3 animals (N=10-15/group) were randomly assigned to the following treatment groups: vehicle and compound 15 75 mg/m^2 Monday, Wednesday and Friday (MWF) for 3 cycles. Each cycle consisted of […] of treatment. The test article or vehicle was administered via the tail vein in a volume of 0.2 mL over approximately 30 sec. The animals were sacrificed after 25 days and tumor volumes were compared.
as §2

The subject of another series is K562 cells. Put plainly: K562 cell cytotoxicity, Alamar blue. Type of series: cell-based. The note with it: Homo sapiens. The method, then:
as §1
K562 cells were incubated with increasing concentrations of the test compound. Cell viability was assessed using an Alamar blue read out

A further series has as its system PC-3 cells. Put plainly: Prostate carcinoma, PC-3 xenograft models. It is filed as in vivo. The note with it: PC-3 s.c. in male nu/nu athymic mice; single agent 100 mg/kg twice weekly; after 64 days.
Series [4] deals with NCI 60 tumor cell line panel. Conditions: Developmental Therapeutics Program Website, read-out: mean IC50 over all cell lines in the panel; cited from earlier work.
The conditions of series [5]: water / aqueous solutions.

Protocol for PC-3 cells: Two studies were performed in mouse PC-3 prostate xenograft models to assess the ability of the test compound to reduce subcutaneous tumor burden as a single agent or in combination with current standard of care. In both studies male nu/nu athymic mice were implanted subcutaneously with PC-3 cells (1×10^7 cells). When the average tumor size reached 100 mm^3 animals were randomly assigned to treatment groups (N=10-15/group). In the first study mice received either vehicle, the test compound 100 mg/kg (300 mg/m^2) twice weekly. The test article or vehicle was administered via the tail vein in a volume of 0.2 mL over approximately 20 sec. The animals were sacrificed after 64 days and tumor volumes compared.
A second study was performed in this model to assess the test compound in combination with the standard of care, Taxotere. […] The animals were sacrificed after 64 days and tumor volumes compared.

In the case of `C=CCNc1c(O)cc2c(O)c1C[C@@H](C)C[C@H](OC)[C@H](O)[C@@H](C)/C=C(\C)[C@H](OC(N)=O)[C@@H](OC)/C=C\C=C(/C)C(=O)N2` [Compound 15, HCl Salt of the Hydroquinone of 17-AAG], the solubility (commonly how much of the substance goes into solution per volume) in the series “physchem” is more than 200 mg/mL. Further, the EC50 (in general, the concentration that produces a half-maximal response) in the series with MDA-MB-468 cells was found to be 335 nM; in the series on MV4-11 cells, 25 nM; in the series with LnCAP cells, 73 nM; in the series with MM1.s cells, 307 nM; in the series with SK-MEL-28 cells, 200 nM; in the series on SKBr3 cells it was 32 nM. For the same compound, in the series on K562 cells, the EC50 amounted to 29 nM. Besides, the “% Tumor Growth Compared to Vehicle” value in [1] amounted to 76%; in series [2], 71%; in the series with SKOV-3 cells, 59%; with Lewis lung cells it was 60%; in the series with PC-3 cells it was 50%. Besides, in [3], the “HSP90 inhibition (summary in words)” value is given as “active HSP90 inhibitors”.

Consider `C=CCNC1=C2C[C@@H](C)C[C@H](OC)[C@H](O)[C@@H](C)/C=C(\C)[C@H](OC(N)=O)[C@@H](OC)/C=C\C=C(/C)C(=O)NC(=CC1=O)C2=O` [Compound 17-AAG, 17-allylamino-17-demethoxygeldanamycin, reference compound], for which the EC50 with MDA-MB-468 cells was 356 nM; with MV4-11 cells, 38 nM; in the series with MM1.s cells, 306 nM; in the series with SKBr3 cells, 34 nM; in the series with K562 cells, 50 nM. In series [4], the IC50 (as a rule, the concentration at which inhibition is half-maximal) is 120 nM.

For the compound `C=CCNc1c(O)cc2c(O)c1C[C@@H](C)C[C@H](OC)[C@H](O)[C@@H](C)/C=C(\C)[C@H](OC(N)=O)[C@@H](OC)/C=C\C=C(/C)C(=O)N2` [hydroquinone of 17-AAG, 17-allylamino-18,21-dihydro-17-demethoxygeldanamycin], the solubility in series [5] lay within 1 to 3 mg/mL.
